According to ChEMBL document CHEMBL1136848, “Parallel medicinal chemistry approaches to selective HDAC1/HDAC2 inhibitor (SHI-1:2) optimization” (Bioorg Med Chem Lett, 2009):
Activity calls are given as the source filed them. No cut-off for these calls is given here.

Assays:
[1] = test system: HCT-116; assay: Antiproliferative activity against human HCT116 cells expressing HDAC after 72 hrs; type: functional, cell-based; conditions: HCT-116, 72 h
[2] = target: Histone deacetylase 3 (Homo sapiens, UniProt O15379); assay: Inhibition of C-terminal FLAG-tagged human HDAC3 overexpressed in mammalian cells by plate reader method; type: cell-based
[3] = target: Histone deacetylase 1 (Homo sapiens, UniProt Q13547); assay: Inhibition of C-terminal FLAG-tagged human HDAC1 overexpressed in mammalian cells by plate reader method; type: cell-based
[4] = test system: HCT-116; assay: Antiproliferative activity against human HCT116 cells expressing HDAC after 96 hrs; type: functional, cell-based; conditions: for IC50: HCT-116, 96 h
[5] = target: T1, Voltage-gated inwardly rectifying potassium channel KCNH2 (Homo sapiens, UniProt Q12809)
[6] = target: T1, Voltage-gated inwardly rectifying potassium channel KCNH2; assay: Inhibition of human ERG at < 10 uM
[7] = Volume of distribution at steady state in dog at 0.5 mg/kg, iv; type: ADME, organism-based, Canis lupus familiaris; parameters: dose 0.5 mg/kg, route intravenous; conditions: in vivo, read-out: Vdss
[8] = Increase in acetylated H2B/Total H2B ratio in acute in-vivo HCT116 xenograft model at 25 mg/kg, ip; type: functional; conditions: route intraperitoneal
[9] = Volume of distribution at steady state in rat at 2 mg/kg, iv; type: ADME, organism-based; parameters: dose 2 mg/kg, route intravenous; conditions: in vivo, read-out: Vdss
[10] = Half life in dog at 0.5 mg/kg, iv; type: ADME, organism-based, Canis lupus familiaris; parameters: dose 0.5 mg/kg, route intravenous; conditions: in vivo
[11] = Clearance in rat at 2 mg/kg, iv; type: ADME, organism-based; parameters: dose 2 mg/kg, route intravenous; conditions: in vivo
[12] = Oral bioavailability in dog at 1 mg/kg, po; type: ADME, organism-based, Canis lupus familiaris; conditions: in vivo
[13] = Inhibition of calcium ion channel at < 10 uM
[14] = Half life in rat at 2 mg/kg, iv; type: ADME, organism-based; parameters: dose 2 mg/kg, route intravenous; conditions: in vivo
[15] = Oral bioavailability in rat at 4 mg/kg; type: ADME, organism-based; conditions: in vivo
[16] = Clearance in dog at 0.5 mg/kg, iv; type: ADME, organism-based, Canis lupus familiaris; parameters: dose 0.5 mg/kg, route intravenous; conditions: in vivo
[17] = species: Homo sapiens; assay: Selectivity ratio of IC50 for C-terminal FLAG-tagged human HDAC3 to IC50 C-terminal FLAG-tagged human HDAC1
[18] = Volume of distribution in rat plasma; type: ADME, organism-based
[19] = Bioavailability in rat plasma; type: ADME, organism-based
[20] = Clearance in rat plasma; type: ADME, organism-based
[21] = Half life in rat plasma; type: ADME, organism-based

T1 sequence (Q12809 whole entry): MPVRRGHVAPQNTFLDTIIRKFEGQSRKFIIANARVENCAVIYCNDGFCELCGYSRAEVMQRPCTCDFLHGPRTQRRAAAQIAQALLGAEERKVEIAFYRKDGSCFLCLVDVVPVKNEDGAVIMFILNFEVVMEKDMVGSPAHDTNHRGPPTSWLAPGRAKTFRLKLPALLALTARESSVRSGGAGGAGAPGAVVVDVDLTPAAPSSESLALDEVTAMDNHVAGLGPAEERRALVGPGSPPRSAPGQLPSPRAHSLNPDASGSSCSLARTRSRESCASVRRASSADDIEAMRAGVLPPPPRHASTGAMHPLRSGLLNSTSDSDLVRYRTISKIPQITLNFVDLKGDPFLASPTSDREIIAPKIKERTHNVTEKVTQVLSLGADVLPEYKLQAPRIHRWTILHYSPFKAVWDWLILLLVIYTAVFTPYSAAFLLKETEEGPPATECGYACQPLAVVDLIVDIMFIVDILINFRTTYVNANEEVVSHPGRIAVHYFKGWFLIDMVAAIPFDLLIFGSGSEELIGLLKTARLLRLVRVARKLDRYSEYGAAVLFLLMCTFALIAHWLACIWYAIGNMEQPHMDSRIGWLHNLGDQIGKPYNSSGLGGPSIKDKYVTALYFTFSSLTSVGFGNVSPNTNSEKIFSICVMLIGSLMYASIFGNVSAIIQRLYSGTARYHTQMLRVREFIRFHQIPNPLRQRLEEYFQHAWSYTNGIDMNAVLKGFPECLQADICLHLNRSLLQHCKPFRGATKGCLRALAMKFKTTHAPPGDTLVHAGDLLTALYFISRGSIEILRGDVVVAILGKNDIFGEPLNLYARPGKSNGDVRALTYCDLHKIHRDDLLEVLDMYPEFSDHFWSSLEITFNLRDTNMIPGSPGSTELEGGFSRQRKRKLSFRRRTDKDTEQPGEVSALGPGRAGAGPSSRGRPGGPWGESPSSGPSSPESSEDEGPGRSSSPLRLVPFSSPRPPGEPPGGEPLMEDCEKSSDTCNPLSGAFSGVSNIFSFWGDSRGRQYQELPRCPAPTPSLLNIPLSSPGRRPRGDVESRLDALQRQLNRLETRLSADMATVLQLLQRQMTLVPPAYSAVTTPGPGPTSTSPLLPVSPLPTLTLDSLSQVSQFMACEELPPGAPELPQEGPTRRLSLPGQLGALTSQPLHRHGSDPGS
Chain of Histone deacetylase 3 (O15379 whole entry): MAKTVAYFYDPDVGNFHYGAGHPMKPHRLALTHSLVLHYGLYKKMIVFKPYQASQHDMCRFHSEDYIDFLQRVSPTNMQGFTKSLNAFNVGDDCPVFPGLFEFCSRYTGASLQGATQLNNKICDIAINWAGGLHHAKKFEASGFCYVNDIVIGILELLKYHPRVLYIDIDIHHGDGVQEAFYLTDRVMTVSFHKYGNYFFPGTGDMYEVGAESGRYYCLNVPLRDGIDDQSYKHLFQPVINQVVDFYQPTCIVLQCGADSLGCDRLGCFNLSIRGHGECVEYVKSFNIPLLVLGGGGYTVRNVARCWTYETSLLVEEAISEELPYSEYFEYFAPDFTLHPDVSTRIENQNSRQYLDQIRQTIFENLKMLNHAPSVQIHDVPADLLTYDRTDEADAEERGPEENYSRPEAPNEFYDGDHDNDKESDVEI
Chain of Histone deacetylase 1 (Q13547 whole entry): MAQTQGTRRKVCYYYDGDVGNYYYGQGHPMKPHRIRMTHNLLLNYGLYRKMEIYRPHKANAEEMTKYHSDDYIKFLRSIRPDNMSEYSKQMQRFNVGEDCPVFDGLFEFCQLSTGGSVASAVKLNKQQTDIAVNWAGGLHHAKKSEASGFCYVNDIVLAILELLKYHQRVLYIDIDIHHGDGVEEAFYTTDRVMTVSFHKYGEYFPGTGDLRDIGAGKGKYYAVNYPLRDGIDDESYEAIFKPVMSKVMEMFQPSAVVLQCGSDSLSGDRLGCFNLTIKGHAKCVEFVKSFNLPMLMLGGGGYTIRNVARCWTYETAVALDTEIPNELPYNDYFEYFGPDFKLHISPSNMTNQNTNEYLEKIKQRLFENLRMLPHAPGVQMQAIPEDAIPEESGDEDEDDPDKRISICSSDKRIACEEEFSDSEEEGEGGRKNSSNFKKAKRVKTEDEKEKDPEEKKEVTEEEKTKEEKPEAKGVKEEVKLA

SMILES: CN(Cc1ccc(C(=O)Nc2cc(-c3ccccc3)ccc2N)cc1)c1ccncc1
- IC50 [1]: 3.61 µM
- IC50 [2]: 5.38 µM

SMILES: O=C(NO)c1ccc(CNC2CCCCC2)cc1
- IC50 [3]: 24.1 µM

SMILES: O=C(NO)c1ccc(CNCCc2cccc(Cl)c2)cc1
- IC50 [3]: 1.01 µM

SMILES: O=C(Nc1cc(-c2ccccc2)ccc1O)c1ccc(CNCc2cccnc2)cc1
- IC50 [4]: 1.36 µM

SMILES: Nc1ccc(-c2ccccc2)cc1NC(=O)c1ccc(CN2CCC3(CCNC3)CC2)cc1
- IC50 [3]: 0.033 µM
- IC50 [1]: 0.309 µM
- IC50 [2]: 6.93 µM

SMILES: Nc1ccc(-c2ccsc2)cc1NC(=O)c1ccc(CN2CCC3(CCCN3)CC2)cc1
- IC50 [3]: 0.008 µM
- IC50 [1]: 0.073 µM
- IC50 [2]: 8.71 µM

SMILES: O=C(Nc1cc(Cl)ccc1O)c1ccc(CNc2ccncc2)cc1
- IC50 [3]: 5.03 µM
- Activity [4]: inactive

SMILES: Nc1ccc(-c2ccccc2)cc1NC(=O)c1ccc(CNc2ccncc2)cc1
- IC50 [1]: 1.75 µM
- IC50 [2]: 6.39 µM

SMILES: O=C(Nc1ccccc1O)c1ccc(CNc2ccncc2)cc1
- IC50 [3]: 1.57 µM
- Activity [4]: inactive

SMILES: Nc1ccc(-c2ccccc2F)cc1NC(=O)c1ccc(CN2CCC3(CCCN3)CC2)cc1
- IC50 [5]: 0.183 µM
- IC50 [3]: 0.016 µM
- IC50 [1]: 0.47 µM
- IC50 [2]: 17.4 µM

SMILES: O=C(NO)c1ccc(CNCc2cccc(Cl)c2)cc1
- IC50 [3]: 0.348 µM

SMILES: Nc1ccc(-c2ccc(F)cc2)cc1NC(=O)c1ccc(CN2CCC3(CCNC3)CC2)cc1
- IC50 [5]: 0.237 µM
- IC50 [3]: 0.013 µM
- IC50 [1]: 0.276 µM
- IC50 [2]: 4.8 µM

SMILES: Nc1ccc(-c2ccccc2)cc1NC(=O)c1ccc(C(=O)N2CCC3(CCCN3)CC2)cc1
- Activity [6]: Not Active
- Vd [7]: 5.1 L/kg
- fold change (FC) [8]: 3
- IC50 [5]: 12.4 µM
- Vd [9]: 14 L/kg
- IC50 [3]: 0.008 µM
- half-life [10]: 8.5 h
- clearance [11]: 1.56 L/h/kg
- bioavailability [12]: 4%
- Activity [13]: inactive
- half-life [14]: 7 h
- bioavailability [15]: 17%
- IC50 [1]: 0.103 µM
- clearance [16]: 0.492 L/h/kg
- IC50 [2]: 5.1 µM

SMILES: O=C(Nc1cc(-c2ccccc2)ccc1O)c1ccc(CNc2ccncc2)cc1
- IC50 [4]: 1.74 µM

SMILES: CC(NCc1ccc(C(=O)Nc2cc(-c3ccccc3)ccc2O)cc1)c1ccncc1 (stereo unspecified)
- IC50 [3]: 0.013 µM
- IC50 [4]: 1.82 µM

SMILES: CC(C)CNCc1ccc(C(=O)Nc2cc(-c3ccccc3)ccc2O)cc1
- Activity [4]: inactive

SMILES: COc1cccc(CNCc2ccc(C(=O)NO)cc2)c1
- IC50 [3]: 0.477 µM

SMILES: O=C(NO)c1ccc(CNc2ccc(Cl)cc2)cc1
- IC50 [3]: 1.62 µM

SMILES: O=C(Nc1cc(Br)ccc1O)c1ccc(CNc2ccncc2)cc1
- IC50 [3]: 5.22 µM
- Activity [4]: inactive

SMILES: O=C(Nc1cc(F)ccc1O)c1ccc(CNc2ccncc2)cc1
- IC50 [3]: 2.01 µM
- Activity [4]: inactive

SMILES: Nc1ccc(-c2cccc(F)c2)cc1NC(=O)c1ccc(CN2CCC3(CCCN3)CC2)cc1
- IC50 [3]: 0.047 µM
- IC50 [1]: 1.07 µM
- IC50 [2]: 5.73 µM

SMILES: COc1ccc(O)c(NC(=O)c2ccc(CNc3ccncc3)cc2)c1
- IC50 [3]: 7.96 µM
- Activity [4]: inactive

SMILES: Nc1ccc(-c2cccs2)cc1NC(=O)c1ccc(CN2CCC3(CCCN3)CC2)cc1
- IC50 [5]: 1.6 µM
- IC50 [3]: 0.004 µM
- IC50 [1]: 0.082 µM
- IC50 [2]: 9.62 µM

SMILES: Cc1ccc(O)c(NC(=O)c2ccc(CNc3ccncc3)cc2)c1
- IC50 [3]: 20.6 µM
- Activity [4]: inactive

SMILES: Nc1ccc(-c2ccccc2F)cc1NC(=O)c1ccc(C(=O)N2CCC3(CCCN3)CC2)cc1
- IC50 [3]: 0.011 µM
- IC50 [1]: 0.29 µM
- IC50 [2]: > 50 µM

SMILES: Nc1ccc(-c2ccccc2)cc1NC(=O)c1ccc(CN2CCC3(CCCN3)CC2)cc1
- Ratio IC50 [17]: 2000
- Vd [18]: 22 L/kg
- bioavailability [19]: 70%
- IC50 [3]: 0.008 µM
- clearance [20]: 2.7 L/h/kg
- half-life [21]: 8 h
- IC50 [1]: 0.118 µM
- IC50 [2]: 16.5 µM

SMILES: Nc1ccc(-c2cccs2)cc1NC(=O)c1ccc(C(=O)N2CCC3(CCCN3)CC2)cc1
- IC50 [5]: 25.1 µM
- IC50 [3]: 0.011 µM
- IC50 [1]: 0.07 µM
- IC50 [2]: 4.33 µM

SMILES: Nc1ccc(-c2ccc(F)cc2)cc1NC(=O)c1ccc(C(=O)N2CCC3(CCCN3)CC2)cc1
- IC50 [3]: 0.012 µM
- IC50 [1]: 0.138 µM
- IC50 [2]: 3.2 µM

SMILES: O=C(Nc1cc(-c2ccccc2)ccc1O)c1ccc(CNCCc2ccccc2)cc1
- Activity [4]: inactive
